Measurements reported in patent publication US12338484B2, “FRET biosensor for detecting and reporting NAD+/NADH ratio changes” (Sartorius BioAnalytical Instruments, Inc., priority 2022, dated 2025).

Assays:
Assay type in all cases: biochemical
[1] = molecular target: Thermus aquaticus T-Rex FRET fusion, initial construct #13, mKOk-Rex(A)-mEGFP-Rex(B), SEQ ID NO: 173 (Thermus aquaticus, UniProt Q9X2V5, E116G/F189I/K117M/K204T/K47E/R46D/R58D/S30A/Y98W); experiment: FRET response (emission spectra) of purified initial construct #13 in absence or presence of 40 uM NADH; set-up: key: Good response: Constructs with very clear and robust spectra separation; Poor response: those with noticeable but small spectra separation; No response: those having no spectra separation
Experimental: (§1) 16 initial FRET constructs (See Table 3) were constructed using expression vector pET28c with a T7 promoter and lac operator and expressed in E. coli. Cells were collected and lysed using a commercially-available lysis buffer. Proteins of interest were isolated from the lysates using Ni-NTA magnetic beads. Eluted proteins were subjected to buffer exchange and final protein concentrating. To test performance of the initial FRET constructs, their emission spectra was recorded on a plate reader in absence or presence of 40 uM NADH. Resulting emission spectra with or without the ligand were normalized and overlaid for each construct. Constructs with very clear and robust spectra separation were labeled as having “good response”, those with noticeable but small spectra separation were labeled as having “poor response”, and finally those having no spectra separation were labeled as having “no response”.

[2] = molecular target: Thermus aquaticus T-Rex FRET fusion, initial construct #10, Rex(A)-cpmEGFP(145/146)-Rex(B)-mKOk, SEQ ID NO: 170 (Thermus aquaticus, UniProt Q9X2V5, E116G/F189I/K117M/K204T/K47E/R46D/R58D/S30A/Y98W); experiment: FRET response (emission spectra) of purified initial construct #10 in absence or presence of 40 uM NADH; set-up: key: Good response: Constructs with very clear and robust spectra separation; Poor response: those with noticeable but small spectra separation; No response: those having no spectra separation
Experimental: as §1

[3] = molecular target: Thermus aquaticus T-Rex FRET fusion, initial construct #11, mKOk-Rex(A)-cpmEGFP(173/174)-Rex(B), SEQ ID NO: 171 (Thermus aquaticus, UniProt Q9X2V5, E116G/F189I/K117M/K204T/K47E/R46D/R58D/S30A/Y98W); experiment: FRET response (emission spectra) of purified initial construct #11 in absence or presence of 40 uM NADH; set-up: key: Good response: Constructs with very clear and robust spectra separation; Poor response: those with noticeable but small spectra separation; No response: those having no spectra separation
Experimental: as §1

[4] = molecular target: T1, Thermus aquaticus T-Rex FRET fusion, initial construct #1, mKOk-Rex(78-189)-cpmEGFP(145/146)-Rex(190-211)-Rex(78-211), SEQ ID NO: 161 (Thermus aquaticus, UniProt Q9X2V5, INS189[…]); experiment: FRET response (emission spectra) of purified initial construct #1 in absence or presence of 40 uM NADH; set-up: key: Good response: Constructs with very clear and robust spectra separation; Poor response: those with noticeable but small spectra separation; No response: those having no spectra separation
T1 construct: His-tag purified from E. coli (pET28c)
Experimental: as §1

[5] = molecular target: T2, Thermus aquaticus T-Rex FRET fusion, initial construct #6, Rex(78-189)-cpmEGFP(173/174)-Rex(190-211)-Rex(78-211)-mKOk, SEQ ID NO: 166 (Thermus aquaticus, UniProt Q9X2V5, INS189[…]); experiment: FRET response (emission spectra) of purified initial construct #6 in absence or presence of 40 uM NADH; set-up: key: Good response: Constructs with very clear and robust spectra separation; Poor response: those with noticeable but small spectra separation; No response: those having no spectra separation
T2 construct: His-tag purified from E. coli
Experimental: as §1

[6] = molecular target: T3, Thermus aquaticus T-Rex FRET fusion, initial construct #7, mKOk-Rex(78-211)-Rex(78-189)-cpmEGFP(173/174)-Rex(190-211), SEQ ID NO: 167 (Thermus aquaticus, UniProt Q9X2V5, INS189[…]); experiment: FRET response (emission spectra) of purified initial construct #7 in absence or presence of 40 uM NADH; set-up: key: Good response: Constructs with very clear and robust spectra separation; Poor response: those with noticeable but small spectra separation; No response: those having no spectra separation
T3 construct: His-tag purified from E. coli
Experimental: as §1

[7] = molecular target: T4, Thermus aquaticus T-Rex FRET fusion, initial construct #4, Rex(78-211)-Rex(78-189)-cpmEGFP(145/146)-Rex(190-211)-mKOk, SEQ ID NO: 164 (Thermus aquaticus, UniProt Q9X2V5, INS189[…]); experiment: FRET response (emission spectra) of purified initial construct #4 in absence or presence of 40 uM NADH; set-up: key: Good response: Constructs with very clear and robust spectra separation; Poor response: those with noticeable but small spectra separation; No response: those having no spectra separation
T4 construct: His-tag purified from E. coli
Experimental: as §1

[8] = molecular target: Thermus aquaticus T-Rex FRET fusion, initial construct #14, Rex(A)-mEGFP-Rex(B)-mKOk, SEQ ID NO: 174 (Thermus aquaticus, UniProt Q9X2V5, E116G/F189I/K117M/K204T/K47E/R46D/R58D/S30A/Y98W); experiment: FRET response (emission spectra) of purified initial construct #14 in absence or presence of 40 uM NADH; set-up: key: Good response: Constructs with very clear and robust spectra separation; Poor response: those with noticeable but small spectra separation; No response: those having no spectra separation
Experimental: as §1

[9] = molecular target: Thermus aquaticus T-Rex FRET biosensor construct #14 (Rex(A)-mEGFP-Rex(B)-mKOk, SEQ ID NO: 174), library variant 1-F8, SEQ ID NO: 13 (Thermus aquaticus, UniProt Q9X2V5, E116G/F189I/K117M/K47E/R46D/R58D/S30A/Y98W); experiment: Signal window in bacterial lysates, FRET ratio in presence or absence of 200 uM NADH (Table 2); conditions: clone 1-F8, SEQ ID NO: 13
Excerpt: In specific embodiments, the fusion protein comprises the amino acid sequence selected from the group consisting of SEQ ID NO: 13-93, 95-154, and 191-193; the sequences are provided in Table 2 and the examples.
Protein library DNA was generated following cloning that assembled pieces of DNA that were generated using PCRs with mixtures of primers. DNA was transformed into E. coli, and the first round of protein library expression was done in bacterial colonies on agar plates. The colonies, each expressing different library members, were imaged, and then classified into groups based on their FRET ratio signal. Colonies from different groups were inoculated into 96-deep-well plates for further protein expression in liquid culture. The original construct that was used to generate the library (e.g., construct #14 in Table 2) was also inoculated on the same plates, along with non-expressing bacteria. The latter served as a negative control.

[10] = molecular target: T5, Thermus aquaticus T-Rex FRET fusion, initial construct #5, mKOk-Rex(78-189)-cpmEGFP(173/174)-Rex(190-211)-Rex(78-211), SEQ ID NO: 165 (Thermus aquaticus, UniProt Q9X2V5, INS189[…]); experiment: FRET response (emission spectra) of purified initial construct #5 in absence or presence of 40 uM NADH; set-up: key: Good response: Constructs with very clear and robust spectra separation; Poor response: those with noticeable but small spectra separation; No response: those having no spectra separation
T5 construct: His-tag purified from E. coli
Experimental: as §1

NC(=O)C1=CN([C@@H]2O[C@H](COP(=O)(O)OP(=O)(O)OC[C@H]3O[C@@H](n4cnc5c(N)ncnc54)[C@H](O)[C@@H]3O)[C@@H](O)[C@H]2O)C=CC1 [NADH]
FRET response to NADH [1]: Poor response
FRET response to NADH [2]: Good response
FRET response to NADH [3]: Poor response
FRET response to NADH [4]: No response
FRET response to NADH [5]: No response
FRET response to NADH [6]: No response
FRET response to NADH [7]: No response
FRET response to NADH [8]: Good response
Signal window (ex mode), measured in lysates [9]: 0.55
FRET response to NADH [10]: No response
